This is an account of results in US9650389B2, “8-oxoprotoberberine derivative or pharmaceutically acceptable salt thereof, preparation method therefor and pharmaceutical composition for preventing or treating diseases associated with activity of NFAT5, containing same as active ingredient” (Korea Research Institute of Chemical Technology, priority 2013, dated 2017).

Broadly, the inhibition is the relative decrease from the control value, in per cent. A word on the IC50: it is the point on the concentration scale where inhibition reaches its midpoint. A higher IC50 goes with weaker potency in that assay.

The structures appear in SMILES notation. Like-named read-outs stand apart in the source and are kept apart here.

In one assay the target is T1, COX2 (Ovis aries, UniProt P79208).
T1 construct: purchased Cayman Co. 760111
T1 sequence (P79208 17-603): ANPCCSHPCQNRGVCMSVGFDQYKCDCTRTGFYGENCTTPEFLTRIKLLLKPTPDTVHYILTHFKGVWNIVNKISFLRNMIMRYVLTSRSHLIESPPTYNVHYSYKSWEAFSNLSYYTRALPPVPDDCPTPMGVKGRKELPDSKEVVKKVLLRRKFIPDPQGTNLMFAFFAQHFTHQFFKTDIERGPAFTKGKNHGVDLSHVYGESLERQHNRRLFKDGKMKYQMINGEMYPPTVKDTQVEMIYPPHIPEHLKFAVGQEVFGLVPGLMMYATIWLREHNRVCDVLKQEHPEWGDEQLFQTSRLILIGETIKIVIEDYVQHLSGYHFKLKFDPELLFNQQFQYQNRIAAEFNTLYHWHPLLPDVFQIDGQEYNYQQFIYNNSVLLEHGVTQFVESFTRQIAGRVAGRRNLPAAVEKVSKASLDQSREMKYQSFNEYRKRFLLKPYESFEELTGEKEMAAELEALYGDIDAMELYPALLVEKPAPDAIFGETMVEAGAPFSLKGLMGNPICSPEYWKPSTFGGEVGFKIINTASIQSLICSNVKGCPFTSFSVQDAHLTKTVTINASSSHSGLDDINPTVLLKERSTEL
Description: COX inhibition, COX assay kit (Table 5). The format is biochemical. On the procedure: (§1) 10 μl of substrate and 10 μl of arachidonic acid were added thereto, followed by reaction for 10 minutes in the darkness. Then, OD590 was measured.

A further assay addresses T2, COX1 (Ovis aries, UniProt P05979).
T2 construct: purchased Cayman Co. 760111
T2 sequence (P05979 25-600): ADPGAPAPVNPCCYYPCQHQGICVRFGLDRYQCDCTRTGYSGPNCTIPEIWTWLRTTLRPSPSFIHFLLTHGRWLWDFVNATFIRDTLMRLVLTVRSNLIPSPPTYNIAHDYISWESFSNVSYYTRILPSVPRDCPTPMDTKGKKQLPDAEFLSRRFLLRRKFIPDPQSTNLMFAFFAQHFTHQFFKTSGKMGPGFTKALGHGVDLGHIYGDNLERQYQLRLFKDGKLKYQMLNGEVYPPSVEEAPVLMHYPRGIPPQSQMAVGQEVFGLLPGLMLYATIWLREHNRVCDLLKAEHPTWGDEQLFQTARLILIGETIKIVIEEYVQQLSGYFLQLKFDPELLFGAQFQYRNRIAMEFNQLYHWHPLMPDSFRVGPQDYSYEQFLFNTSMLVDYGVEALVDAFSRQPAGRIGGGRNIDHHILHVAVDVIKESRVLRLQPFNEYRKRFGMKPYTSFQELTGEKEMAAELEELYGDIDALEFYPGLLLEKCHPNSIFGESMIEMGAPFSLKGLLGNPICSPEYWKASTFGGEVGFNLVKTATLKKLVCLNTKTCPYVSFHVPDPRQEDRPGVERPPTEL
Description: COX inhibition, COX assay kit (Table 4). In kind it is biochemical. On the procedure:
as §1

Another assay concerns iNOS. The assay is described as follows: Inhibition of LPS-induced iNOS induction in Raw264.7 cells (Griess reagent). In kind it is cell-based. As to conditions: Mus musculus, read-out: Inhibition rate of iNOS induction (%). On the procedure:
To investigate whether or not the derivative of the present invention could inhibit iNOS inducement, Raw264.7 cells (mouse macrophages) were distributed in a 384-well plate at the density of 3×10^4 cells/well. The cells were treated with LPS at the concentration of 100 ng/ml, followed by culture at 37° C. for 24 hours. The concentration of […] increased in the medium was measured by using Griess reagent. The inhibition rate was calculated by mathematical formula based on the detected signals. The results are shown in Table 2. % inhibition=(mean value of sample−mean value of negative control)/(mean value of positive control −mean value of negative control)×100 [Mathematical Formula 1]
In general terms: Griess reagent forms a coloured azo dye with nitrite.

The next assay addresses T3, NFAT5 (Mus musculus, UniProt Q9WV30).
T3 construct: endogenous in cells; host or cells: RAW264.7
Description: NFAT5 reporter screening (GFP, HCS) in LPS-treated Raw264.7 cells. In kind it is cell-based. The following applies: for Inhibition rate of NFAT5 transcription (%): Raw264.7 reporter, LPS 1 μg/ml, 48 hours. On the procedure: To investigate whether or not the derivative of the present invention could inhibit the transcriptional activity of NFAT5, NFAT5 reporter screening was performed. A plasmid vector was constructed by eliminating CMV promoter sequence from the backbone and inserting NFAT5 binding site sequence ([…]) instead. Raw264.7 cells transfected with the vector were cultured in 10% FBS-PRMI (supplemented with 500 μg/ml G418). The cells were distributed in a 96-well plate at the density of 3×10^3 cells/well, followed by further culture for one more day. The cells were treated with LPS at the concentration of 1 μg/ml for 48 hours. Then, the cells were fixed and the expression level of GFP was measured by HCS fluorescence image (Thermo, ArrayScan^VTI).

Where [1] appears, read: Conc. 0.16 μM, two values per substance.
Setting [2] is: Conc. 0.16 μM, two values per substance, read-out: inhibition rate.
Where [3] appears, read: Conc. 0.8 μM, two values per substance.
The mark [4] stands for this setting: Conc. 0.8 μM, two values per substance, read-out: inhibition rate.
Where [5] appears, read: Conc. 4 μM, two values per substance.
[6] abbreviates: Conc. 4 μM, two values per substance, read-out: inhibition rate.
The mark [7] stands for this setting: Conc. 20 μM, two values per substance.
[8] abbreviates: Conc. 20 μM, two values per substance, read-out: inhibition rate.
Where [9] appears, read: Conc. 100 μM, two values per substance.
Where [10] appears, read: Conc. 100 μM, two values per substance, read-out: inhibition rate.
The mark [11] stands for this setting: 1 μM, Raw264.7, LPS 100 ng/ml, 24 hours.
Where [12] appears, read: 10 μM, Raw264.7, LPS 100 ng/ml, 24 hours.

T3 sequence (Q9WV30 whole entry): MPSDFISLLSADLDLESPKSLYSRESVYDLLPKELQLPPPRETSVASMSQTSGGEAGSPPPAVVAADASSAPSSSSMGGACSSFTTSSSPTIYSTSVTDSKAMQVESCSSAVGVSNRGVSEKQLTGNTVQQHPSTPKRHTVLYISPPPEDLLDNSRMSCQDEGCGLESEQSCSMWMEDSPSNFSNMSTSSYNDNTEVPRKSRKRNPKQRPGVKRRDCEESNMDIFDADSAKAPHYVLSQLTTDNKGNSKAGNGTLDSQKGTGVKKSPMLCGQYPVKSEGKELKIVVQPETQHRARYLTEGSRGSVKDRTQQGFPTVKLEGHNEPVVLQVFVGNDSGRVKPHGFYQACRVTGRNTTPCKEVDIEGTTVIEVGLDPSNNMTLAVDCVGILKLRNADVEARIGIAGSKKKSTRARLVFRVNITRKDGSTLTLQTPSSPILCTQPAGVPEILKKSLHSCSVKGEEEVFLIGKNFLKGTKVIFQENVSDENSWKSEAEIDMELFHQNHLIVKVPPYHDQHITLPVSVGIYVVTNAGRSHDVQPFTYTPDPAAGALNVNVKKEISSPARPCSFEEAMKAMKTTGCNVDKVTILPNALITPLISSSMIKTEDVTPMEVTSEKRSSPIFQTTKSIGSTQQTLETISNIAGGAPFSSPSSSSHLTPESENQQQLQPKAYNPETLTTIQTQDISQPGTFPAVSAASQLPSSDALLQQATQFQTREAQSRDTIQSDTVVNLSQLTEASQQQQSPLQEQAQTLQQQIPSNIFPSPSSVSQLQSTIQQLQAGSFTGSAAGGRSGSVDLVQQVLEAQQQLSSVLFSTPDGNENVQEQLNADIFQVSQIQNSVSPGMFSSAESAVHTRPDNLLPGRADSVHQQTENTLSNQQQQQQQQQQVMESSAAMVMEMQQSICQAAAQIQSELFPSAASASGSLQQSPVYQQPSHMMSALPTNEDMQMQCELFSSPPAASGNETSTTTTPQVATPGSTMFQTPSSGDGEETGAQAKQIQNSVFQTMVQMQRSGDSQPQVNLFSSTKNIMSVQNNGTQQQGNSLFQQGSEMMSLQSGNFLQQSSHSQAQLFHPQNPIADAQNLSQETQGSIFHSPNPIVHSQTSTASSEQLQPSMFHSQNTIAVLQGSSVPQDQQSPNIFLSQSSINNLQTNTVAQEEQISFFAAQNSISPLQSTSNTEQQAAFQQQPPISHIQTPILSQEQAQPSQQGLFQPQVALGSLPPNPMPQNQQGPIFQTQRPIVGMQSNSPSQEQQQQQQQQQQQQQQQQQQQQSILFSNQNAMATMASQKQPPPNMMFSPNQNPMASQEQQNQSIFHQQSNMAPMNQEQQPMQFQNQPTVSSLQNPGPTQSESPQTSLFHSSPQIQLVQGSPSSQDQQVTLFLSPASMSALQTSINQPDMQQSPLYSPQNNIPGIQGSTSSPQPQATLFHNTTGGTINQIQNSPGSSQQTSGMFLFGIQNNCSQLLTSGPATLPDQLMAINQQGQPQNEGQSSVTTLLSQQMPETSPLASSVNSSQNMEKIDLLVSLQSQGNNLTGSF

On to `COc1ccc2cc3[n+](cc2c1OC)CCc1cc2c(cc1-3)OCO2` [Berberine], for which, on COX2 (Conc. 0.032 μM, two values per substance, read-out: inhibition rate), the inhibition at 0.032 µM worked out at 0%. Besides, the inhibition rate against COX2 (setting [1]) is on record as 7.9; at COX2 (setting [3]), 19.8; on COX2 (setting [5]), 29.9; against COX2 (setting [7]) it was 39.3; against COX2 (setting [9]) it was 53.7; at COX1 (setting [1]), 5.4. The inhibition rate at COX1 (setting [3]) turned out to be 13.4; against COX1 (setting [5]) it was 20.4; at COX1 (setting [7]) it was 31.4; against COX1 (setting [9]), 51.5. Also, the inhibition at 0.16 µM is 8.8% on COX2 (setting [2]) and 3.3% on COX1 (setting [2]). The values for the inhibition at 0.8 µM on COX2 (setting [4]) and on COX1 (setting [4]) were 17.2% and 12.4%, respectively. Also, the inhibition at 4 µM at COX2 (setting [6]) came out at 28.2%; on COX1 (setting [6]), 18.4%. For the same molecule, the figures for the inhibition at 20 µM at COX2 (setting [8]) and at COX1 (setting [8]) were 41% and 24.4%, respectively. The inhibition at 100 µM at COX2 (setting [10]) worked out at 50.3%; at COX1 (setting [10]), 53.5%. Besides, the IC50 against COX2 (Table 5) was determined as 58.4 µM; on COX1 (Table 4), 96.3 µM.
Regarding `COc1ccc2c(C(=O)Nc3ccccc3F)c3n(c(=O)c2c1OC)CCc1cc2c(cc1-3)OCO2` [Example 13, N-(2-fluorophenyl)-9,10-dimethoxy-8-oxo-6,8-dihydro-5H-[1,3]dioxolo[4,5-g]isoquinolino[3,2-a]isoquinoline-13-carboxamide], the inhibition at 1 µM with iNOS (setting [11]) came to 70.8%. Besides, the inhibition at 10 µM in the assay with iNOS (setting [12]) was found to be 106%. Besides, the “Inhibition rate of NFAT5 transcription (%)” value (“Inhibition rate … (%)” below) is −11.1% on NFAT5 (1 μM) and −29.9% on NFAT5 (10 μM).
As to `CCOC(=O)c1c2n(c(=O)c3c(OC)c(OC)ccc13)CCc1cc3c(cc1-2)OCO3` [Example 10, ethyl9,10-dimethoxy-8-oxo-6,8-dihydro-5H-[1,3]dioxolo[4,5-g]isoquinolino[3,2-a]isoquinoline-13-carboxylate], in the assay on iNOS (RAW264.7, 24 h), the inhibition at 1 µM was 53.9% and the inhibition at 10 µM stood at 99.2%. Besides, the “Inhibition rate … (%)” value at NFAT5 (1 μM) was −3.8%. For the same molecule, the “Inhibition rate … (%)” value on NFAT5 (10 μM) amounted to 53.7%. For the same molecule, at NFAT5 (Table 3 and FIG. 1), the “inhibiting NFAT5 activity (in words)” value is on record as “remarkably excellent in inhibiting NFAT5 activity”.
Turning to `COc1ccc2c(C(=O)O)c3n(c(=O)c2c1OC)CCc1cc2c(cc1-3)OCO2` [Example 11, 9,10-dimethoxy-8-oxo-6,8-dihydro-5H-[1,3]dioxolo[4,5-g]isoquinolino[3,2-a]isoquinoline-13-carboxylic acid], in the assay on iNOS (setting [11]), the inhibition at 1 µM is -17.2%. In addition, the inhibition at 10 µM in the assay on iNOS (setting [12]) was determined as 118%. Further, the entries for the “Inhibition rate … (%)” value on NFAT5 (1 μM) and on NFAT5 (10 μM) were −10.4% and −12.8%, respectively.
With `COc1ccc2c(C(=O)c3ccccc3F)c3n(c(=O)c2c1OC)CCc1cc2c(cc1-3)OCO2` [Example 9, 13-(2-fluorobenzoyl)-9,10-dimethoxy-5H-[1,3]dioxolo[4,5-g]isoquinolino[3,2-a]isoquinoline-8(6H)-one], in the assay on iNOS (setting [11]), the inhibition at 1 µM was determined as 65.6%. Besides, in the assay with iNOS (setting [12]), the inhibition at 10 µM amounted to 117%. The “Inhibition rate … (%)” value at NFAT5 (1 μM) is 0.5%; at NFAT5 (10 μM) it was 16.4%.
As for `COc1ccc2c(Cc3ccc(F)cc3F)c3n(c(=O)c2c1OC)CCc1cc2c(cc1-3)OCO2` [Example 2, 13-(2,4-difluorobenzyl)-9,10-dimethoxy-5H-[1,3]dioxolo[4,5-g]isoquinolino[3,2-a]isoquinoline-8(6H)-one], in the assay with iNOS (setting [11]), the inhibition at 1 µM stood at 56.8%. The inhibition at 10 µM in the assay on iNOS (setting [12]) was 95.2%. The results for the “Inhibition rate … (%)” value at NFAT5 (1 μM) and at NFAT5 (10 μM) were 13.6% and 24.4%, respectively.
Take `COc1ccc2c(Cc3nc4ccccc4[nH]3)c3n(c(=O)c2c1OC)CCc1cc2c(cc1-3)OCO2` [Example 7, 13-((1H-benzo[d]imidazole-2-yl)methyl)-9,10-dimethoxy-5,6-dihydro-[1,3]dioxolo [4,5-g]isoquinolino[3,2-a]isoquinoline-8(6H)-one]: in the assay with iNOS (RAW264.7, 24 h), the inhibition at 1 µM was determined as 13.4% and the inhibition at 10 µM came to 100%. Moreover, at NFAT5 (1 μM), the “Inhibition rate … (%)” value came to 18.5%. Further, the “Inhibition rate … (%)” value at NFAT5 (10 μM) is 28.2%.
As for `COc1ccc2c(Cc3ccccc3C)c3n(c(=O)c2c1OC)CCc1cc2c(cc1-3)OCO2` [Example 4, 9,10-dimethoxy-13-(2-methylbenzyl)-5,6-dihydro-[1,3]dioxolo[4,5-g]isoquinolino [3,2-a]isoquinoline-8(6H)-one], the inhibition at 1 µM with iNOS (setting [11]) was 23.2%. The inhibition at 10 µM in the assay with iNOS (setting [12]) was found to be 97.9%. Besides, the “Inhibition rate … (%)” value on NFAT5 (1 μM) came out at 7.4%; on NFAT5 (10 μM) it was 88.2%.
`COc1ccccc1Cc1c2n(c(=O)c3c(OC)c(OC)ccc13)CCc1cc3c(cc1-2)OCO3` [Example 5, 9,10-dimethoxy-13-(2-methoxybenzyl)-5,6-dihydro-[1,3]dioxolo[4,5-g]isoquinolino [3,2-a]isoquinoline-8(6H)-one]: the inhibition at 1 µM in the assay with iNOS (setting [11]) was 29%. Also, the inhibition at 10 µM in the assay on iNOS (setting [12]) turned out to be 98.3%. Further, the “Inhibition rate … (%)” value at NFAT5 (1 μM) is recorded as 24.2%; at NFAT5 (10 μM) it was 77.6%.
In the case of `COc1ccc2c(C(N)=O)c3n(c(=O)c2c1OC)CCc1cc2c(cc1-3)OCO2` [Example 12, 9,10-dimethoxy-8-oxo-6,8-dihydro-5H-[1,3]dioxolo[4,5-g]isoquinolino[3,2-a]isoquinoline-13-carboxamide], the inhibition at 1 µM in the assay with iNOS (setting [11]) is 35.4%. Further, the inhibition at 10 µM with iNOS (setting [12]) came to 107%. The “Inhibition rate … (%)” value on NFAT5 (1 μM) is recorded as −2.9%; at NFAT5 (10 μM), −5.2%.
